Test results published in US5250542A, “Peripherally selective piperidine carboxylate opioid antagonists” (Eli Lilly and Company, priority 1992, dated 1993).
Counter-ions that a name gives are not always drawn. Like-named read-outs stand apart in the source and are kept apart here.

What was measured:
[1] = target: T1, peripheral opioid receptors (Mus musculus, UniProt P42866); test: precipitated diarrhea in morphine-maintained mice (peripheral opioid activity) and comparison with the writhing test; format: in vivo; conditions: for Ratio (AD50 mouse writhing test / ED50 mouse diarrhea test): higher ratio = greater relative antagonism of peripheral opioid receptors; for ED50: mouse, 0.5 h, morphine-maintained mice, antagonist subcutaneous or oral, 30 min observation
T1 construct: Mice maintained (6 mice/cage) on 0.01M saccharin water with 1 g/1 morphine sulfate; from tissue; host or cells: living morphine-maintained mice (in vivo test; endogenous receptor)
T1 sequence (P42866 whole entry): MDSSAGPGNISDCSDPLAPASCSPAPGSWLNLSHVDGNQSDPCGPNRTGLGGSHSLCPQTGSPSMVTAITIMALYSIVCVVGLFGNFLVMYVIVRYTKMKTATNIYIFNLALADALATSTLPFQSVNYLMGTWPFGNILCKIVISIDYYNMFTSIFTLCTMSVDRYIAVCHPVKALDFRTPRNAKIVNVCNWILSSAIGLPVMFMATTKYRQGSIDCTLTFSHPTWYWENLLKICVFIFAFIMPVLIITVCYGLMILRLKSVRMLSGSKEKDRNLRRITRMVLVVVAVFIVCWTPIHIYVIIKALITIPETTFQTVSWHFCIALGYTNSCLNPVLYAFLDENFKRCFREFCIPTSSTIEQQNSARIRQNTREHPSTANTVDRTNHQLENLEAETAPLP
Method: Determinations of peripheral opioid activity were conducted. Mice maintained (6 mice/cage) on 0.01M saccharin water with 1 g/1 morphine sulfate for a minimum of 10 days with mice averaging 3.0^+ g water/mouse/day for at least three days are used as subjects. The morphine water was removed 45 min. prior to injection with the proposed opioid antagonist. Initial testing consisted of 5 mice/dose of compound. The antagonist was given by the subcutaneous or oral, route of administration,and the mice were placed in 11-14"×4 7/12 I.D. clear plastic cylinders with white paper towels used for a floor.
The mice were then monitored visually for 30 minutes post-injection for the presence of jumping and of diarrhea. Jumping was scored as positive if at least one jump occurred in 30 min. Diarrhea was scored as positive when feces were moist enough to stain the white paper at the base of the cylinder. After 30 minutes of testing, the mice were placed back in original cages, put back on morphine water, and not tested again for 48 hrs. Lower doses of the antagonist compounds were tested until threshold doses for diarrhea were determined. Diarrhea is a peripherally mediated sign of precipitated opiate abstinence.
The extent of the effect on peripheral activity compared to central activity of the present compounds can-be determined by comparing the AD50 for the mouse writhing test with the ED50 for the mouse diarrhea test. The higher the ratio, the greater the relative antagonism of the peripheral opioid receptors by a particular compound.

[2] = target: T2, opioid receptor (Mus musculus, UniProt P42866); test: mouse writhing analgesis test: block of morphine-induced analgesia; format: in vivo, CF-1 male mice; set-up: unit not given here; conditions: dose of antagonist that reduced the inhibition of writhing produced by 1.25 mg/kg morphine sulfate to 50%; subcutaneous, 20 min before acetic acid
T2 construct: Five CF-1 male mice (Charles River, Portage, Mich.); from tissue; host or cells: living CF-1 male mice (in vivo test; endogenous receptor)
T2 sequence (P42866 whole entry): as above
Method: In order to determine in vivo opioid receptor antagonism, the mouse writhing analgesis test was used. Test compounds were measured for their ability to block morphine-induced analgesia.
Five CF-1 male mice (Charles River, Portage, Mich.), weighing approximately 20 g after being fasted overnight, were observed simultaneously for the writhing response. The writhing response was defined as a contraction of the abdominal musculature, followed by the extension of the hind limbs, and was induced by the intraperitoneal adminstration of 0.6% acetic acid in a volumne of 1 ml/100 g body weight. The observation period was 10 min. in duration, beginning 5 min. after injection of acetic acid. The percent inhibition of writhing was calculated from the average number of writhes in the control (non-drug) group. Each data point is the mean (±standarderror) for five mice. The ED50 was defined as the dose of agonist that inhibited mean writhing by 50%. […] Each mouse was only used once. All drugs were administered subcutaneously (1 ml/100 g bwt) 20 min. before the injection of acetic acid.

[3] = target: T3, mu receptor (Rattus norvegicus, UniProt P33535); test: opioid receptor binding assay, [3H] NAL (tritiated naloxone), mu receptor; set-up: species or system rat (Male Sprague Dawley), brain minus cerebellum
T3 construct: rat whole brain minus cerebellum for mu was homogenized; from tissue; host or cells: brain of male Sprague Dawley rats, whole brain minus cerebellum, homogenate fraction
T3 sequence (P33535 whole entry): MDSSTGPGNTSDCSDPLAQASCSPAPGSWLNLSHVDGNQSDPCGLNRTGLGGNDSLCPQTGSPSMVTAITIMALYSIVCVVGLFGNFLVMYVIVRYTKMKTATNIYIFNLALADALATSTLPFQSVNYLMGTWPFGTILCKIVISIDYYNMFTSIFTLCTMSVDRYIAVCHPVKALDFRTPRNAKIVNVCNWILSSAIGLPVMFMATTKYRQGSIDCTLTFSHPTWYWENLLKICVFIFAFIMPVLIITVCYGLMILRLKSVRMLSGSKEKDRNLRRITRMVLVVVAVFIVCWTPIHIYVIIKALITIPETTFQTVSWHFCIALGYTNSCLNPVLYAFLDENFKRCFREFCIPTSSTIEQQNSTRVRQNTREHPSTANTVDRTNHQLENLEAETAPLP
Method: This assay was conducted by the following procedure.
Male Sprague Dawley rats for mu site experiments were sacrificed via decapitation and the brains were removed. The brain tissue, rat whole brain minus cerebellum for mu was homogenized in a Teflon and glass tissue homogenizer. A supernatant I, pellet IV, fraction was frozen in a nitrogen freezer at 1.33 g/ml concentration and stored for not longer than five weeks prior to use. Pellets were rehydrated with physiological buffer prior to use.
The reaction was initiated by the addition of the resuspended tissue which had been preincubated at 37° C. for 20 minutes. The reaction mixture was incubated in a 37° C. water bath for 20 minutes. The reaction was terminated by rapid filtration, (Brandel Cell Harvestor), through Whatman GF/B glass filters that had been presoaked in Krebs-Hepes buffer pH 7.4. The filters were then washed 2x with 5 ml of ice cold Krebs-Hepes buffer pH 7.4. Washed filters were placed in scintillation vials and 10 ml RedySolv, (Brandel), was added and samples counted in a Searle D-300 beta counter. Means and standard error statistics were calculated for triplicate experimental determinations in certain cases. The incubation time for the reaction mixture was 20 minutes at 37° C.
Ki values were calculated using a minitab statistical program according to the following formula: [formula] wherein IC50 is the concentration at which 50% of the ^3 H ligand is displaced by the test compounds and KD is the dissociation constant for the ^3 H ligand at the receptor site. KD can be determined as described by Bennett, "Methods in Binding Studies", Neurotransmitter Receptor Binding, Yamamura, et al., ed., p. 57-90, Raven Press, N.Y. (1978) incorporated herein by reference.
In the Table, column 1 sets forth the Example Number of the compound evaluated, column 2 the Ki value in nanomolar (nM) at the mu receptor and columns 3 and 4 the percent displacement by the test compound at the indicated concentration, i.e., 10 nm or 100 nm.

[4] = 20 min, read-out: % displacement at 10 nM, 10 nM test compound, [3H] naloxone 0.5 nM
[5] = 20 min, read-out: % displacement at 100 nM, 100 nM test compound, [3H] naloxone 0.5 nM
[6] = 20 min, read-out: % displacement at 10 nM
[7] = 20 min, read-out: % displacement at 100 nM

For `C[C@H]1CN(CC(CC2CCCCC2)C(=O)O)CC[C@@]1(C)c1cccc(O)c1` (relative stereo) [Example 5B, 3-[3,4-dimethyl-4-(3-hydroxyphenyl)-1-piperidinyl]-2-(cyclohexylmethyl)-propanoic acid monohydrate], the “Ratio (AD50 mouse writhing test / ED50 mouse diarrhea test)” value [1] was 7, the ED50 [1] was 0.24 mg/kg and the AD50 [2] was 1.6. For the same compound, the Ki [3] was 1.11 nM, the inhibition at 0.01 µM [3, 4] was 93% and the inhibition at 0.1 µM [3, 5] was 99%.
For `C[C@H]1CN(CC(Cc2ccccc2)C(=O)NCCC(=O)O)CC[C@@]1(C)c1cccc(O)c1` (stereo partly shown) [Example 57, monohydrate], the “Ratio (AD50 mouse writhing test / ED50 mouse diarrhea test)” value [1] was > 400, the ED50 [1] was 0.1 mg/kg and the AD50 [2] was > 40. For the same compound, the Ki [3] was 0.5 nM, the inhibition at 0.01 µM [3, 6] was 92% and the inhibition at 0.1 µM [3, 7] was 98%.
`CC(=O)OC(C)OC(=O)CNC(=O)C(Cc1ccccc1)CN1CC[C@@](C)(c2cccc(O)c2)[C@@H](C)C1` (relative stereo) [Example 94] was tested, and the “Ratio (AD50 mouse writhing test / ED50 mouse diarrhea test)” value [1] was 2222, the ED50 [1] was 0.009 mg/kg and the AD50 [2] was 20. The inhibition at 0.01 µM ([3]; 20 min, 10 nM test compound, [3H] naloxone 0.5 nM, read-out: % displacement at 10 nM) was 76% and the inhibition at 0.1 µM ([3]; 20 min, 100 nM test compound, [3H] naloxone 0.5 nM, read-out: % displacement at 100 nM) was 95%.
For `CCOC(=O)CCCNC(=O)C(CCN1CC[C@@](C)(c2cccc(O)c2)[C@@H](C)C1)C1CCCCC1` (relative stereo) [Example 23, 4-[2-cyclohexyl-4-[4-(3-hydroxyphenyl)-3,4-dimethyl-1-piperidinyl]-1-oxobutyl]amino]-butanoic acid ethyl ester monohydrochloride monohydrate], the “Ratio (AD50 mouse writhing test / ED50 mouse diarrhea test)” value [1] was > 140, the ED50 [1] was 0.14 mg/kg and the AD50 [2] was > 20. For the same compound, the Ki [3] was 1.65 nM, the inhibition at 0.01 µM [3, 4] was 100% and the inhibition at 0.1 µM [3, 5] was 96%.
`CCOC(=O)C(CCN1CC[C@@](C)(c2cccc(O)c2)[C@@H](C)C1)c1ccccc1` (relative stereo) [Example 8A, trans-4-[(3-Hydroxyphenyl)-3,4-dimethyl-1-piperidine]-2-phenyl butanoic acid, ethyl ester hydrochloride] was tested, and the “Ratio (AD50 mouse writhing test / ED50 mouse diarrhea test)” value [1] was 35, the ED50 [1] was 0.02 mg/kg and the AD50 [2] was 0.70. For the same compound, the inhibition at 0.01 µM [3, 4] was 88%, the inhibition at 0.1 µM [3, 5] was 95% and the Ki ([3]; [3H] naloxone 0.5 nM, pH 7.4, 37° C., 20 min) was 2.01 nM.
`C[C@H]1CN(CC(Cc2ccccc2)C(=O)NCCCC(N)=O)CC[C@@]1(C)c1cccc(O)c1` (stereo partly shown) [Example 63, 4-[[3-[4-(3-hydroxyphenyl)-3,4-dimethyl-1-piperidinyl]-2-(phenylmethyl)-1-oxopropyl]-amino]butanamide monohydrochloride] was tested, and the “Ratio (AD50 mouse writhing test / ED50 mouse diarrhea test)” value [1] was 90, the ED50 [1] was 0.29 mg/kg and the AD50 [2] was 26. It also gave a Ki [3] of 2 nM, an inhibition at 0.01 µM [3, 4] of 89% and an inhibition at 0.1 µM [3, 5] of 100%.
With `C[C@H]1CN(CCC(C(=O)N(C)C)c2ccccc2)CC[C@@]1(C)c1cccc(O)c1` (relative stereo) [Example 10, trans-4-[(3-hydroxyphenyl)-3,4-dimethyl-1-piperidinyl]-2-phenyl-N,N-dimethylbutanamide hydrochloride] the “Ratio (AD50 mouse writhing test / ED50 mouse diarrhea test)” value [1] was 9, the ED50 [1] was 0.06 mg/kg and the AD50 [2] was 0.54. For the same compound, the Ki [3] was 1.17 nM, the inhibition at 0.01 µM [3, 4] was 89% and the inhibition at 0.1 µM [3, 5] was 100%.
In the case of `CNC(=O)CCNC(=O)C(Cc1ccccc1)CN1CC[C@@](C)(c2cccc(O)c2)[C@@H](C)C1` (stereo partly shown) [Example 59, N-(methyl)-3-[[3-[4-(3-hydroxyphenyl)-3,4-dimethyl-1-piperidinyl]-2-(phenylmethyl)-1-oxopropyl]amino]propanamide monohydrochloride], the “Ratio (AD50 mouse writhing test / ED50 mouse diarrhea test)” value [1] is reported as 11, the ED50 [1] is reported as 0.54 mg/kg and the AD50 [2] is reported as 5.9. The Ki [3] was 4.64 nM, the inhibition at 0.01 µM [3, 4] was 88% and the inhibition at 0.1 µM [3, 5] was 100%.
With `CCNC(=O)CNC(=O)C(CCN1CC[C@@](C)(c2cccc(O)c2)[C@@H](C)C1)c1ccccc1` (relative stereo) [Example 15, N-ethyl-2-[[4-[4-(3-hydroxyphenyl)-3,4-dimethyl-1-piperidinyl]]-2-phenyl-1-oxobutylamino]-acetamide monohydrochloride monohydrate] the “Ratio (AD50 mouse writhing test / ED50 mouse diarrhea test)” value [1] was > 133, the ED50 [1] was 0.3 mg/kg and the AD50 [2] was > 40. The Ki [3] was 1.07 nM, the inhibition at 0.01 µM [3, 4] was 99% and the inhibition at 0.1 µM [3, 5] was 100%.
With `C[C@H]1CN(CC(Cc2ccccc2)C(=O)NCCC(=O)OCc2ccccc2)CC[C@@]1(C)c1cccc(O)c1` (stereo partly shown) [Example 56, hydrochloride] the “Ratio (AD50 mouse writhing test / ED50 mouse diarrhea test)” value [1] was 667, the ED50 [1] was 0.06 mg/kg and the AD50 [2] was 40. It also gave a Ki [3] of 0.49 nM, an inhibition at 0.01 µM [3, 4] of 97% and an inhibition at 0.1 µM [3, 7] of 98%.
`C[C@H]1CN(CC(Cc2ccccc2)C(=O)NCC(=O)OCc2ccccc2)CC[C@@]1(C)c1cccc(O)c1` (stereo partly shown) [Example 55, 2-[[2-(phenylmethyl)-1-oxo-3-[4-(3-hydroxyphenyl)3,4-dimethyl-1-piperidinyl]propyl]amino]-ethanoic acid phenylmethyl ester hydrochloride] was tested, and the “Ratio (AD50 mouse writhing test / ED50 mouse diarrhea test)” value [1] was 63, the ED50 [1] was 0.12 mg/kg and the AD50 [2] was 7.5. For the same compound, the inhibition at 0.01 µM [3, 6] was 83% and the inhibition at 0.1 µM [3, 7] was 97%.
`C[C@H]1CN(CC(Cc2ccccc2)C(=O)NCC(=O)N(C)C)CC[C@@]1(C)c1cccc(O)c1` (stereo partly shown) [Example 47, N,N-dimethyl-2-[[3-4-(3-hydroxyphenyl)-3,4-dimethyl-1-piperidinyl]-2-(phenylmethyl)-1-oxypropyl]amino]acetamide monohydrochloride monohydrate] was tested, and the “Ratio (AD50 mouse writhing test / ED50 mouse diarrhea test)” value [1] was 267, the ED50 [1] was 0.15 mg/kg and the AD50 [2] was 40. It also gave a Ki [3] of 2.11 nM, an inhibition at 0.01 µM [3, 4] of 89% and an inhibition at 0.1 µM [3, 5] of 95%.
In the case of `CCOC(=O)CN(C)C(=O)CNC(=O)C(Cc1ccccc1)CN1CC[C@@](C)(c2cccc(O)c2)[C@@H](C)C1` (relative stereo) [Example 75], the “Ratio (AD50 mouse writhing test / ED50 mouse diarrhea test)” value [1] is reported as 71, the ED50 [1] is reported as 0.073 mg/kg and the AD50 [2] is reported as 5.2. The Ki [3] was 1.15 nM, the inhibition at 0.01 µM [3, 4] was 90% and the inhibition at 0.1 µM [3, 5] was 99%.
With `CCNC(=O)CNC(=O)C(Cc1ccccc1)CN1CC[C@@](C)(c2cccc(O)c2)[C@@H](C)C1` (stereo partly shown) [Example 45, N-ethyl-2-[[2-(phenylmethyl-)-1-oxo-3-[4-(3-hydroxyphenyl)-3,4-dimethyl-1-piperidinyl]propyl]-amino]ethanamide] the “Ratio (AD50 mouse writhing test / ED50 mouse diarrhea test)” value [1] was 11, the ED50 [1] was 0.24 mg/kg and the AD50 [2] was 2.6. It also gave a Ki [3] of 1.28 nM, an inhibition at 0.01 µM [3, 4] of 93% and an inhibition at 0.1 µM [3, 7] of 98%.
